Values after ≈ are worked out from the molar mass of the structure shown.
Key:
[1] = test system: CCRF-CEM cells; test: In vitro growth inhibition / cytotoxicity against CCRF-CEM human leukemia cells; assay type: cell-based; conditions: 72 hours of incubation, read-out: IC50 (concentration required for 50% inhibition of growth)
Description: The in vitro data were obtained using CCRF-CEM cells, a human leukemia cell line. Foley et al., Cancer, 18:522 (1965). These cells were grown using standard techniques. See, e.g., G. B. Grindey, et al., Journal of Molecular Pharmacoloy, 16:601 (1979). Dose-response curves were generated for various compounds to determine the concentration required for 50% inhibition of growth (IC50). Cluster plates were prepared in duplicate with the compound at various concentrations. Test compounds were dissolved initially in DMSO at a concentration of 4 mg/ml and further diluted with solvent to the desired concentration. Cells in Roswell Park Memorial Institute 1640 media supplemented with 10% dialyzed fetal bovine serum, and 25 mM HEPES buffer were added to the well at a final concentration of 4.8×10^4 cells/well in a total volume of 2.0 ml. After 72 hours of incubation (95% air, 5% CO2), cell numbers were determined on a ZBI Coulter counter. Cell number for indicated controls at the end of incubation was usually (4-6)×10^5 cells/well. Cell viability was also measured by staining with 3-[4,5-dimethylthiazol-2-yl]-2,5-diphenyl-tetrazolium bromide (MTT) using standard techniques. R. I. Freshney, Culture of Animal Cells: A Manual of Basic Technique, 253-254 (2d ed. 1987).
Column 1 refers to the example number of the compound tested; Column 2 depicts the in vitro cytoxicity against CCRF-CEM cells by relating the concentration of the test compound required for 50% inhibition of growth (IC50) of the cells in the well.

[2] = test system: 6C3HED lymphosarcoma; test: In vivo antitumor activity in C3H mice bearing 6C3HED lymphosarcoma allograft (Gardner lymphosarcoma), oral
From the text: A second tumor model employed C3H mice bearing the widely used allograft 6C3HED lymphosarcoma, also known as the Gardner lymphosarcoma (GLS). The 6C3HED lymphosarcoma was obtained from the Division of Cancer Treatment, National Cancer Institute, Tumor Bank, maintained at E. G. and G. Mason Research (Worcester, Mass.).
First passage tumors were stored in liquid nitrogen, using standard techniques. The transplanted tumor was reestablished from the Tumor Bank every six months or as needed. The tumor was maintained by serial passage twice weekly in the host mice.
In the procedures utilized here, the tumor was removed from passage animals and minced into 1- to 3-mm cubic fragments using sterile techniques. Tumor pieces were checked for sterility using both Antibiotic Medium 1 and Brain Heart Infusion (Difco, Detroit, Mich.). The xenograft tumor pieces were implanted into the recipient CD1 Nu/Nu mice subcutaneously in an axillary site by trochar. The allograft 6C3HED tumor pieces were implanted into the recipient C3H mice in an analogous fashion.
Drug therapy on the appropriate schedule was initiated seven days after tumor implantation for the HXGC3 xenograft and the day after tumor implantation for the 6C3HED allograft. The compound being tested was mixed with 2.5% Emulphor EL620 from GAF Corporation (1:40 dilution in 0.9% saline). The total dosage volume for each administration was 0.5 ml. All animals were weighed at the beginning and end of administration of the subject compounds. Food and water were provided ad libitum.
Each control group and each dosage level of the treated groups consisted of 9 or 10 mice selected at random from the pool of implanted animals. The formulations were administered orally by gavage with the use of an 18-gauge needle. Compounds were dosed daily for 10 days for the studies using the human tumor xenografts and 8 days for the studies using the allograft.
The xenograft tumor was measured five days after treatment ended with two dimensional measurements (width and length) of the tumor taken using digital electronic calipers interfaced to a microcomputer. J. F. Worzalla, et al., Investigational New Drugs, 8:241-251 (1990). The allograft was measured in a like manner the day after the dosing schedule ended. Tumor weights were calculated from these measurements using the following formula: [formula]
At least one control group of an equal number of mice was treated with the same volume of 2.5% Emulphor only. The percent inhibition is determined by subtracting the ratio of the mean tumor size of the test group relative to the control group from one and multiplying the result by 100.
The results of several experiments in mice bearing the HXGC3 human colon adenocarcinoma and the 6C3HED lymphosarcoma when the Formula I compounds were administered orally are provided in Table II. In the table, Column 1 refers to the example number of the compound tested; Column 2 describes the particular human tumor xenograft or mouse allograft being studied; Column 3 gives the dosage level of the compound of Formula I in milligrams per kilogram of body weight; Column 4 describes the percent inhibition of tumor growth; and Column 5 tallies the number of mice which died during the course of the experiment relative to the total number of animals in the group.

[3] = test system: HXGC3 human colon adenocarcinoma xenograft; test: In vivo antitumor activity in CD1 Nu/Nu mice bearing HXGC3 human colon adenocarcinoma xenograft, oral; conditions: daily for 10 days
Description: One of the tumor models used for showing the anti-neoplastic activity of the sulfonylureas of this invention was the human colon xenograft HXGC3. […] This tumor was obtained from St. Jude's Children's Research Hospital and has been widely used as a human tumor model.
The xenograft tumor was measured five days after treatment ended with two dimensional measurements (width and length) of the tumor taken using digital electronic calipers interfaced to a microcomputer. […] Tumor weights were calculated from these measurements using the following formula: [formula]

[4] = 6C3HED, 1200 mg/kg, oral, daily for 8 days, second entry of Example 1

C=Cc1ccc(S(=O)(=O)NC(=O)Nc2ccc(Cl)cc2)cc1 [Example 1, N-[[(4-chlorophenyl)amino]carbonyl]-4-(ethenyl)benzenesulfonamide]
IC50 [1]: 19.8 µg/mL (≈ 58.8 µM)
Toxic/Total (mice which died / total in group) ([2]; 6C3HED, 37.5 mg/kg, oral, daily for 8 days, second entry of Example 1): 0/10
Toxic/Total (mice which died / total in group) ([2]; 6C3HED, 75 mg/kg, oral, daily for 8 days, second entry of Example 1): 0/10
Toxic/Total (mice which died / total in group) ([2]; 6C3HED, 150 mg/kg, oral, daily for 8 days, first entry of Example 1): 0/10
Toxic/Total (mice which died / total in group) ([2]; 6C3HED, 150 mg/kg, oral, daily for 8 days, second entry of Example 1): 0/10
Toxic/Total (mice which died / total in group) ([2]; 6C3HED, 300 mg/kg, oral, daily for 8 days, first entry of Example 1): 1/10
Toxic/Total (mice which died / total in group) ([2]; 6C3HED, 300 mg/kg, oral, daily for 8 days, second entry of Example 1): 1/10
Toxic/Total (mice which died / total in group) ([2]; 6C3HED, 600 mg/kg, oral, daily for 8 days, second entry of Example 1): 2/10
Percent Inhibition of tumor growth [2, 4]: Toxic
Toxic/Total (mice which died / total in group) [2, 4]: 10/10
Percent Inhibition of tumor growth ([2]; po, 37.5 mg/kg, 192 h): 34%
Percent Inhibition of tumor growth ([2]; po, 75 mg/kg, 192 h): 66%
Percent Inhibition of tumor growth ([2]; po, 600 mg/kg, 192 h): 100%

C=Cc1ccc(S(=O)(=O)NC(=O)Nc2ccc(Cl)c(Cl)c2)cc1 [Example 2, N-[[(3,4-dichlorophenyl)amino]carbonyl]-4-(ethenyl)benzenesulfonamide]
IC50 [1]: 9.3 µg/mL (≈ 25.1 µM)
Percent Inhibition of tumor growth ([3]; 150 mg/kg): 93%
Toxic/Total (mice which died / total in group) ([3]; 150 mg/kg): 0/7
Percent Inhibition of tumor growth ([3]; 300 mg/kg): 97%
Toxic/Total (mice which died / total in group) ([3]; 300 mg/kg): 1/7

C=Cc1cccc(S(=O)(=O)NC(=O)Nc2ccc(Cl)cc2)c1 [Example 3, N-[[(4-chlorophenyl)amino]carbonyl]-3-(ethenyl)benzenesulfonamide]
IC50 [1]: 14.4 µg/mL (≈ 42.8 µM)
Toxic/Total (mice which died / total in group) ([2]; 6C3HED, 150 mg/kg, oral, daily for 8 days, entry of Example 3): 0/10
Toxic/Total (mice which died / total in group) ([2]; 6C3HED, 300 mg/kg, oral, daily for 8 days, entry of Example 3): 0/10
Percent Inhibition of tumor growth ([2]; po, 150 mg/kg, 192 h): 60%
Percent Inhibition of tumor growth ([2]; po, 300 mg/kg, 192 h): 83%
